Measured values as given in patent US20080019961A1, “Hedgehog signaling pathway antagonist cancer treatment” (Regents of the University of Michigan, priority 2006, published 2008).
Where two headings read alike, the source gives them in different places. Square brackets hold non-standard residues; d marks the D form. Peptide text beside a SMILES is read from it. * marks the point of attachment. Nle = CCCC[C@H](N)C(=O)O; Cbz = O=C(OCc1ccccc1)*

Legend:
Format in all cases: cell-based, human
[1] = system: PTCH1, Gli1, Gli2 and HES1 mRNA; experiment: Hh and Notch pathway gene mRNA in mammospheres by real-time RT-PCR; conditions: for block of Shh-induced PTCH1, Gli1, Gli2 and HES1 expression: 3 μg/ml Shh with 300 nM Cyclopamine or 5 μM GSI; for block of DSL-induced HES1, PTCH1, Gli1 and Gli2 expression: 10 μM DSL with 5 μM GSI or 300 nM Cyclopamine
Method: Single cells from epithelial organoids were plated in 6-well ultra-low attachment plates (Coming) at a density of 100,000 viable cells/ml. Cells were cultured in 2 ml of a serumfree MEBM per well. […] Cells were incubated for 7 days in the presence of different treatments as follows. For the treatment with Hedgehog agonists and antagonist, Shh was used at 1.5 μg/ml, 3 μg/ml and 6 μg/ml in the presence or absence of 300 riM of CP or 5 μM of GSI. CP was used at 150 nM, 300 nM and 600 nM concentrations, and the control was 12% 1×PBS with 0.06% BSA. For the treatment with Notch agonists and antagonist, DSL was used at 10 μM in the presence or absence of 5 μM of GSI or 300 nM of CP, and the controls consisted of 10 μM of scrambled Notch peptide. All treatments were continued for 10 days, with agonists and antagonists added every two or three days when medium was changed.
Mammospheres were then collected for in vitro self-renewal assays and Real-time quantitative RT-PCR. For reverse-transcriptase reactions, 1 μg of total RNA from mammospheres or differentiated cells on collagen-coated plates was reverse transcribed with 200 U M-MLV Reverse Transcriptase (GibcoBRL) at 42° C. for 1 hour in the presence of 5 mM each of dATP, dCTP, dGTP and dTTP, 4 μl 5× 1 st strand buffer (GibcoBRL), 0.01M DDT, 1 U RNA Guard RNase inhibitor (GibcoBRL), and 2.5 µM random primers in a total volume of 20 μl. The reaction was terminated by heating to 95° C. for 3 minutes. Real-time quantitative PCR (TaqMan™) primers and probes were purchased from AppliedBiosytems as Assays-on-Demand™ Gene Expression Products. Real-time PCRs were performed following the supplier's instructions (Applied Biosystems). 20 μl of PCR mixture contained 10 μl of 2× Taqman™ universal PCR Master Mix, 1 μl of 20× working stock of gene expression assay mix, and 50 ng of RNA converted cDNA. PCR was performed in a ABI PRISM® 7900HT sequence detection system with 384-Well block module and automation accessory (Applied Biosystems) by incubation at 50° C. for 2 min and then 95° C. for 10 min followed by 40 amplification cycles (15 s of denaturation at 95° C. and 1 min of hybridization and elongation at 60° C.). The reaction for each sample was performed in quadruplicates. Fluorescence of the PCR products was detected by the same apparatus. The number of cycles that it takes for amplification plot to reach the threshold limit, the Ct-value was used for quantification. RPLP0 was used for normalization.
In order to determine whether activation of the Notch pathway could affect Hh targets, Notch signaling was activated by utilizing the DSL ligand which binds to all Notch receptors (Dontu et al., 2004).

Bmi-1 mRNA = Bmi-1 mRNA in mammospheres by real-time RT-PCR; conditions: for block of Shh-induced Bmi-1 expression: Shh with Cyclopamine or GSI
[2] = system: mammary stem/progenitor cells in mammospheres; experiment: Primary and secondary mammosphere formation (in vitro self-renewal assay)
[3] = system: mammosphere branching morphogenesis; experiment: Mammosphere branching morphogenesis in 3-D Matrigel culture; conditions: 300 nM Cyclopamine
Method: Briefly, 30 mammospheres were suspended in 1 ml of BD Matrigel™ Matrix (Cat. 354234, BD Biosciences, Palo Alto, Calif.) and Ham's F-12 medium (BioWbittaker) with 5% serum at a ratio of 1:1, and plated 1 ml of the mixture into one well of 24-well cold plates and each group of mammospheres was performed in quadruplicates. After the matrigel was solidified, 1 ml of Ham's F-12 medium (BioWhittaker) with 5% serum was added to the top of the matrigel. The experiments were repeated with mammospheres derived from at least three different patients.

Compound: CC1=C2C[C@H]3[C@@H](CC=C4C[C@@H](O)CC[C@@]43C)[C@@H]2CC[C@]12O[C@@H]1C[C@H](C)CN[C@H]1[C@H]2C [Cyclopamine]
- block of Shh-induced PTCH1, Gli1, Gli2 and HES1 expression [1]: partially blocked
- block of DSL-induced HES1, PTCH1, Gli1 and Gli2 expression [1]: partially blocked and not
- block of Shh-induced Bmi-1 expression (Bmi-1 mRNA): blocked
- Cyclopamine inhibition of primary mammosphere formation on addition of Shh [2]: reversal of inhibition
- Cyclopamine inhibition of secondary mammosphere formation on addition of Shh [2]: reversed
- block of DSL-stimulated mammary stem cell self-renewal [2]: not
- block of the Shh effect on mammary stem cell self-renewal [2]: blocked
- decrease of average cell number in primary mammospheres vs control [2]: 51%
- decrease of average cell numbers per secondary mammosphere [2]: 56%
- decrease of primary mammosphere formation vs control [2]: 45%
- decrease of secondary mammospheres vs control [2]: 54%
- effect of Cyclopamine on the effects of Gli1 or Gli2 overexpression [2]: unaffected
- effects on mammosphere formation, lowest dose [2]: no effects
- effect on branch formation [3]: almost completely blocked branch formation

Compound: CCCC[C@@H](C=O)NC(=O)[C@H](CC(C)C)NC(=O)[C@H](CC(C)C)NC(=O)OCc1ccccc1 [GSI, Z-Leu-Leu-Nle-CHO] (Cbz-Leu-Leu-[Nle]-aldehyde)
- block of Shh-induced PTCH1, Gli1, Gli2 and HES1 expression [1]: not
- block of DSL-induced HES1, PTCH1, Gli1 and Gli2 expression [1]: completely blocked
- block of DSL-induced Bmi-1 expression (Bmi-1 mRNA; DSL with GSI or Cyclopamine): completely blocked
- block of Shh-induced Bmi-1 expression (Bmi-1 mRNA): not
- block of the Shh effect on mammary stem cell self-renewal ([2]; 3 μg/ml Shh with 300 nM Cyclopamine or 5 μM GSI): did not block
- block of DSL-stimulated mammary stem cell self-renewal ([2]; 10 μM DSL with 5 μM GSI or 300 nM Cyclopamine): blocked
